Legend:
Assay type in all cases: in vivo
[1] = tested on: ryegrass, Italian (Italian ryegrass, Lolium multiflorum); test: Test A postemergence ryegrass, Italian; details: 0 to 100 scale, 0 is no effect, 100 is complete control
Method in brief: (§1)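 Directed soil spray at planting gives preemergence data; foliar application to one- to two-leaf plants gives postemergence data. Response is visual injury relative to untreated controls about 10 d after treatment, scored 0–100.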

[2] = tested on: foxtail, giant (giant foxtail, Setaria faberii); test: Test A preemergence foxtail, giant; details: 0 to 100 scale, 0 no effect, 100 complete control
Method in brief: as §1

kochia (Kochia scoparia) [3] = test: Test A postemergence kochia; details: 0 to 100 scale, 0 is no effect, 100 is complete control
Method in brief: as §1

[4] = tested on: barnyardgrass (Echinochloa crus-galli); test: Test A postemergence barnyardgrass; details: 0 to 100 scale, 0 is no effect, 100 is complete control
Method in brief: as §1

[5] = tested on: barnyardgrass (Echinochloa crus-galli); test: Test B flooded paddy test barnyardgrass; details: Table B, Flood, 250 g ai/ha, scale 0 to 100
Method in brief: (§2)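 Once seedlings reached two leaves, pots were flooded 3 cm deep and treated via the paddy water, which remained at that level. Evaluation was visual, against controls, after 13 to 15 d under greenhouse conditions.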

[6] = tested on: ragweed (common ragweed, Ambrosia elatior); test: Test A preemergence ragweed; details: 0 to 100 scale, 0 no effect, 100 complete control
Method in brief: as §1

[7] = tested on: sedge, umbrella (small-flower umbrella sedge, Cyperus difformis); test: Test B flooded paddy test sedge, umbrella; details: Table B, Flood, 250 g ai/ha, scale 0 to 100
Method in brief: as §2

[8] = tested on: ragweed (common ragweed, Ambrosia elatior); test: Test A postemergence ragweed; details: 0 to 100 scale, 0 is no effect, 100 is complete control
Method in brief: as §1

[9] = tested on: wheat (Triticum aestivum); test: Test A postemergence wheat; details: 0 to 100 scale, 0 is no effect, 100 is complete control
Method in brief: as §1

[10] = tested on: blackgrass (Alopecurus myosuroides); test: Test A postemergence blackgrass; details: 0 to 100 scale, 0 is no effect, 100 is complete control
Method in brief: as §1

[11] = tested on: pigweed (Amaranthus retroflexus); test: Test A postemergence pigweed; details: 0 to 100 scale, 0 is no effect, 100 is complete control
Method in brief: as §1

rice (Oryza sativa) = test: Test B flooded paddy test rice; details: Table B, Flood, 250 g ai/ha, scale 0 to 100
Method in brief: as §2

[12] = tested on: galium (catchweed bedstraw, Galium aparine); test: Test A postemergence galium; details: 0 to 100 scale, 0 is no effect, 100 is complete control
Method in brief: as §1

kochia (Kochia scoparia) [13] = test: Test A preemergence kochia; details: 0 to 100 scale, 0 no effect, 100 complete control
Method in brief: as §1

[14] = tested on: barnyardgrass (Echinochloa crus-galli); test: Test A preemergence barnyardgrass; details: 0 to 100 scale, 0 no effect, 100 complete control
Method in brief: as §1

[15] = tested on: foxtail, giant (giant foxtail, Setaria faberii); test: Test A postemergence foxtail, giant; details: 0 to 100 scale, 0 is no effect, 100 is complete control
Method in brief: as §1

[16] = tested on: ducksalad (Heteranthera limosa); test: Test B flooded paddy test ducksalad; details: Table B, Flood, 250 g ai/ha, scale 0 to 100
Method in brief: as §2

[17] = tested on: pigweed (Amaranthus retroflexus); test: Test A preemergence pigweed; details: 0 to 100 scale, 0 no effect, 100 complete control
Method in brief: as §1

corn (Zea mays) = test: Test A postemergence corn; details: 0 to 100 scale, 0 is no effect, 100 is complete control
Method in brief: as §1

[18] = tested on: ryegrass, Italian (Italian ryegrass, Lolium multiflorum); test: Test A preemergence ryegrass, Italian; details: 0 to 100 scale, 0 no effect, 100 complete control
Method in brief: as §1

Row | Structure (SMILES) | Plant response rating, Ryegrass, Italian ([1]; 125 g ai/ha) | Plant response rating, Ryegrass, Italian ([1]; 500 g ai/ha) | Foxtail, Giant plant response rating ([2]; 125 g ai/ha) | Foxtail, Giant plant response rating ([2]; 500 g ai/ha) | Plant response rating, Kochia (kochia (Kochia scoparia) [3]; 125 g ai/ha) | Plant response rating, Kochia (kochia (Kochia scoparia) [3]; 500 g ai/ha) | Plant response rating, Barnyardgrass ([4]; 125 g ai/ha) | Plant response rating, Barnyardgrass ([4]; 500 g ai/ha) | Plant response rating [5] | Ragweed plant response rating ([6]; 125 g ai/ha) | Ragweed plant response rating ([6]; 500 g ai/ha) | Plant response rating [7] | Plant response rating, Ragweed ([8]; 125 g ai/ha) | Plant response rating, Ragweed ([8]; 500 g ai/ha) | Plant response rating, Wheat ([9]; 125 g ai/ha) | Plant response rating, Wheat ([9]; 500 g ai/ha) | Plant response rating, Blackgrass ([10]; 125 g ai/ha) | Plant response rating, Blackgrass ([10]; 500 g ai/ha) | Plant response rating, Pigweed ([11]; 125 g ai/ha) | Plant response rating, Pigweed ([11]; 500 g ai/ha) | also measured
1 | O=C1NCC[C@@H](c2cccc(C(F)(F)F)c2)[C@@H]1C(=O)Nc1cccc(F)c1F [Compound 20] | 0 | 20 | 60 | 90 | 0 | 0 | 40 | 80 | 0 | 0 | 0 | 0 | 0 | 0 | 0 | 0 | 0 | 20 | 0 | 0 | Plant response rating (rice (Oryza sativa)): 0; Plant response rating, Galium ([12]; 125 g ai/ha): 0; Plant response rating, Galium ([12]; 500 g ai/ha): 0; Kochia plant response rating (kochia (Kochia scoparia) [13]; 125 g ai/ha): 0; Kochia plant response rating (kochia (Kochia scoparia) [13]; 500 g ai/ha): 0; Barnyardgrass plant response rating ([14]; 125 g ai/ha): 50; Barnyardgrass plant response rating ([14]; 500 g ai/ha): 90; Plant response rating, Foxtail, Giant ([15]; 125 g ai/ha): 40; Plant response rating, Foxtail, Giant ([15]; 500 g ai/ha): 80; Plant response rating [16]: 0; Pigweed plant response rating ([17]; 125 g ai/ha): 0; Pigweed plant response rating ([17]; 500 g ai/ha): 0; Plant response rating, Corn (corn (Zea mays); 125 g ai/ha): 0; Plant response rating, Corn (corn (Zea mays); 500 g ai/ha): 20; Ryegrass, Italian plant response rating ([18]; 125 g ai/ha): 0; Ryegrass, Italian plant response rating ([18]; 500 g ai/ha): 0
2 | O=C1NCC[C@@H](c2ccc(C(F)(F)F)cc2)[C@@H]1C(=O)Nc1cccc(F)c1F [Compound 23] | 0 | 20 | 30 | 80 | 20 | 50 | 20 | 70 | 0 | 0 | 60 | 0 | 0 | 0 | 0 | 20 | 0 | 10 | 0 | 0 | Plant response rating (rice (Oryza sativa)): 0; Plant response rating, Galium ([12]; 125 g ai/ha): 0; Plant response rating, Galium ([12]; 500 g ai/ha): 20; Kochia plant response rating (kochia (Kochia scoparia) [13]; 125 g ai/ha): 0; Kochia plant response rating (kochia (Kochia scoparia) [13]; 500 g ai/ha): 40; Barnyardgrass plant response rating ([14]; 125 g ai/ha): 30; Barnyardgrass plant response rating ([14]; 500 g ai/ha): 70; Plant response rating, Foxtail, Giant ([15]; 125 g ai/ha): 20; Plant response rating, Foxtail, Giant ([15]; 500 g ai/ha): 60; Plant response rating [16]: 0; Pigweed plant response rating ([17]; 125 g ai/ha): 0; Pigweed plant response rating ([17]; 500 g ai/ha): 0; Plant response rating, Corn (corn (Zea mays); 125 g ai/ha): 0; Plant response rating, Corn (corn (Zea mays); 500 g ai/ha): 20; Ryegrass, Italian plant response rating ([18]; 125 g ai/ha): 0; Ryegrass, Italian plant response rating ([18]; 500 g ai/ha): 20
3 | O=C1NCC[C@@H](c2cccc(C(F)(F)F)c2)[C@@H]1C(=O)Nc1cccc(Cl)c1F [Compound 24] | 0 | 20 | 70 | 80 | 0 | 0 | 50 | 80 | 0 | 0 | 0 | 0 | 0 | 0 | 20 | 30 | 0 | 30 | 0 | 0 | Plant response rating (rice (Oryza sativa)): 0; Plant response rating, Galium ([12]; 125 g ai/ha): 0; Plant response rating, Galium ([12]; 500 g ai/ha): 0; Kochia plant response rating (kochia (Kochia scoparia) [13]; 125 g ai/ha): 0; Kochia plant response rating (kochia (Kochia scoparia) [13]; 500 g ai/ha): 0; Barnyardgrass plant response rating ([14]; 125 g ai/ha): 50; Barnyardgrass plant response rating ([14]; 500 g ai/ha): 80; Plant response rating, Foxtail, Giant ([15]; 125 g ai/ha): 50; Plant response rating, Foxtail, Giant ([15]; 500 g ai/ha): 80; Plant response rating [16]: 0; Pigweed plant response rating ([17]; 125 g ai/ha): 0; Pigweed plant response rating ([17]; 500 g ai/ha): 0; Plant response rating, Corn (corn (Zea mays); 125 g ai/ha): 20; Plant response rating, Corn (corn (Zea mays); 500 g ai/ha): 30; Ryegrass, Italian plant response rating ([18]; 125 g ai/ha): 0; Ryegrass, Italian plant response rating ([18]; 500 g ai/ha): 0
4 | O=C1NCC[C@@H](c2cccc(C(F)(F)F)c2)[C@@H]1C(=O)Nc1ccc(F)c(F)c1F [Compound 29] | 0 | 0 | 0 | 20 | 0 | 0 | 0 | 30 | 0 | 0 | 0 | 0 | 0 | 0 | 0 | 0 | 0 | 0 | 0 | 0 | Plant response rating (rice (Oryza sativa)): 0; Plant response rating, Galium ([12]; 125 g ai/ha): 0; Plant response rating, Galium ([12]; 500 g ai/ha): 0; Kochia plant response rating (kochia (Kochia scoparia) [13]; 125 g ai/ha): 0; Kochia plant response rating (kochia (Kochia scoparia) [13]; 500 g ai/ha): 0; Barnyardgrass plant response rating ([14]; 125 g ai/ha): 0; Barnyardgrass plant response rating ([14]; 500 g ai/ha): 20; Plant response rating, Foxtail, Giant ([15]; 125 g ai/ha): 0; Plant response rating, Foxtail, Giant ([15]; 500 g ai/ha): 0; Plant response rating [16]: 0; Pigweed plant response rating ([17]; 125 g ai/ha): 0; Pigweed plant response rating ([17]; 500 g ai/ha): 0; Plant response rating, Corn (corn (Zea mays); 125 g ai/ha): 0; Plant response rating, Corn (corn (Zea mays); 500 g ai/ha): 0; Ryegrass, Italian plant response rating ([18]; 125 g ai/ha): 0; Ryegrass, Italian plant response rating ([18]; 500 g ai/ha): 0
5 | O=C1NCC[C@@H](c2cccc(Cl)c2)[C@@H]1C(=O)Nc1cccc(F)c1F [Compound 43] | 0 | 0 | 0 | 0 | 0 | 0 | 0 | 0 | 0 | 0 | 0 | 0 | 0 | 0 | 0 | 0 | 0 | 0 | 0 | 0 | Plant response rating (rice (Oryza sativa)): 0; Plant response rating, Galium ([12]; 125 g ai/ha): 0; Plant response rating, Galium ([12]; 500 g ai/ha): 0; Kochia plant response rating (kochia (Kochia scoparia) [13]; 125 g ai/ha): 0; Kochia plant response rating (kochia (Kochia scoparia) [13]; 500 g ai/ha): 0; Barnyardgrass plant response rating ([14]; 125 g ai/ha): 0; Barnyardgrass plant response rating ([14]; 500 g ai/ha): 0; Plant response rating, Foxtail, Giant ([15]; 125 g ai/ha): 0; Plant response rating, Foxtail, Giant ([15]; 500 g ai/ha): 0; Plant response rating [16]: 0; Pigweed plant response rating ([17]; 125 g ai/ha): 0; Pigweed plant response rating ([17]; 500 g ai/ha): 0; Plant response rating, Corn (corn (Zea mays); 125 g ai/ha): 0; Plant response rating, Corn (corn (Zea mays); 500 g ai/ha): 0; Ryegrass, Italian plant response rating ([18]; 125 g ai/ha): 0; Ryegrass, Italian plant response rating ([18]; 500 g ai/ha): 0

From patent publication US9944602B2, “Piperidinone herbicides” (E. I. DU PONT DE NEMOURS AND COMPANY, priority 2014, dated 2018)
